Assay results as given in patent US20230167127A1, “COMPOUNDS AND THEIR USE IN THE TREATMENT OF BACTERIAL INFECTION” (Hoffmann-La Roche Inc., priority 2020, published 2023).

System: Escherichia coli ATCC 25922
Test: 50% growth inhibitory concentration (IC50) determination, Iso-Sensitest broth dilution
Type: cell-based
Conditions: Escherichia coli, ATCC25922, 16 h, strain Escherichia coli ATCC 25922; 10-point broth dilution, optical density at 600 nm over 16 h; read-out: Escherichia coli growth inhibition IC50
Method in brief: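 10-point twofold Iso-Sensitest broth dilution (e.g. 50 to 0.097 μM final) with DMSO stocks, incubated at 35±2° C. Growth followed by OD 600 nm every 20 min over 16 h; IC50 derived from growth inhibition during logarithmic phase.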

Structure (SMILES)	IC50 [nM]
O=C1COc2ncc(N3CC(CCNCC4Cc5cc(OCCn6cncn6)cc(F)c5C4)OC3=O)nc2N1 (centres unmarked) [Example 296, 6-[5-[2-[[4-fluoro-6-[2-(l,2,4-triazol-1-yl)ethoxy]-2,3-dihydro-1H-inden-2-yl]methylamino]ethyl]-2-oxo-1,3-oxazolidin-3-yl]-4H-pyrazino[2,3-b][1,4]oxazin-3-one; formic acid]	381
Cc1ncc(F)c2c1CC(N[C@H]1CC[C@]3(CC1)CN(c1cnc4c(n1)NC(=O)CO4)C(=O)O3)C2 (stereo partly drawn) [Example 297, trans-6-[8-[(4-fluoro-1-methyl-6,7-dihydro-5H-cyclopenta[c]pyridin-6-yl)amino]-2-oxo-1-oxa-3-azaspiro[4.5]decan-3-yl]-4H-pyrazino[2,3-b][1,4]oxazin-3-one; formic acid]	249
Cc1ncc(F)c2c1CC(N[C@H]1CC[C@@]3(CC1)CN(c1cnc4c(n1)NC(=O)CO4)C(=O)O3)C2 (some centres unmarked) [Example 298]	369
Cc1c(F)cnc2c1CC(CNCCC1CN(c3cnc4c(n3)NC(=O)CO4)C(=O)O1)C2 (centres unmarked) [Example 299, 6-[5-[2-[(3-fluoro-4-methyl-6,7-dihydro-5H-cyclopenta[b]pyridin-6-yl)methylamino]ethyl]-2-oxo-1,3-oxazolidin-3-yl]-4H-pyrazino[2,3-b][1,4]oxazin-3-one]	< 97.7
Cc1c(F)cnc2c1CC(CNCCC1CN(c3ccc4c(n3)NC(=O)CO4)C(=O)O1)C2 (centres unmarked) [Example 300, 6-[5-[2-[(3-fluoro-4-methyl-6,7-dihydro-5H-cyclopenta[b]pyridin-6-yl)methylamino]ethyl]-2-oxo-1,3-oxazolidin-3-yl]-4H-pyrido[3,2-b][1,4]oxazin-3-one]	156
Cc1c(F)cnc2c1CC(CN1CCC3(CC1)CN(c1cnc4c(n1)NC(=O)CO4)C(=O)O3)C2 (centres unmarked) [Example 301, 6-[8-[(3-fluoro-4-methyl-6,7-dihydro-5H-cyclopenta[b]pyridin-6-yl)methyl]-2-oxo-1-oxa-3,8-diazaspiro[4.5]decan-3-yl]-4H-pyrazino[2,3-b][1,4]oxazin-3-one]	< 97.7
Cc1ncc(F)c2c1CC(NCCCc1cn(-c3cnc4c(n3)NC(=O)CO4)c(=O)o1)C2 (centres unmarked) [Example 302, 6-[5-[3-[(4-Fluoro-1-methyl-6,7-dihydro-5H-cyclopenta[c]pyridin-6-yl)amino]propyl]-2-oxo-1,3-oxazol-3-yl]-4H-pyrazino[2,3-b][1,4]oxazin-3-one; formic acid]	< 97.7
Cc1ncc(F)c2c1CC(N(C)CCCc1cn(-c3cnc4c(n3)NC(=O)CO4)c(=O)o1)C2 (centres unmarked) [Example 303, 6-[5-[3-[(4-Fluoro-1-methyl-6,7-dihydro-5H-cyclopenta[c]pyridin-6-yl)-methylamino]propyl]-2-oxo-1,3-oxazol-3-yl]-4H-pyrazino[2,3-b][1,4]oxazin-3-one; formic acid]	163
O=C1COc2ncc(N3CC(CCNCC4Cc5cc(OCCN6CCOC6=O)cc(F)c5C4)OC3=O)nc2N1 (centres unmarked) [Example 304, 6-[5-[2-[[4-fluoro-6-[2-(2-oxo-1,3-oxazolidin-3-yl)ethoxy]-2,3-dihydro-1H-inden-2-yl]methylamino]ethyl]-2-oxo-1,3-oxazolidin-3-yl]-4H-pyrazino[2,3-b][1,4]oxazin-3-one; formic acid]	446
NC(=O)COc1cc(F)c2c(c1)CC(CNCCC1CN(c3cnc4c(n3)NC(=O)CO4)C(=O)O1)C2 (centres unmarked) [Example 305, 2-[[7-fluoro-2-[[2-[2-oxo-3-(3-oxo-4H-pyrazino[2,3-b][1,4]oxazin-6-yl)-1,3-oxazolidin-5-yl]ethylamino]methyl]-2,3-dihydro-1H-inden-5-yl]oxy]acetamide]	< 97.7
NC(=O)COc1cc(F)c2c(c1)CC(CNCCc1cn(-c3cnc4c(n3)NC(=O)CO4)c(=O)o1)C2 (centres unmarked) [Example 306, 2-[[7-fluoro-2-[[2-[2-oxo-3-(3-oxo-4H-pyrazino[2,3-b][1,4]oxazin-6-yl)-1,3-oxazol-5-yl]ethylamino]methyl]-2,3-dihydro-1H-inden-5-yl]oxy]acetamide; formic acid]	< 97.7
O=C1COc2ncc(N3CC(CCNCC4Cc5cc(OCC(=O)N6CCC6)cc(F)c5C4)OC3=O)nc2N1 (centres unmarked) [Example 307, 6-[5-[2-[[6-[2-(azetidin-1-yl)-2-oxoethoxy]-4-fluoro-2,3-dihydro-1H-inden-2-yl]methylamino]ethyl]-2-oxo-1,3-oxazolidin-3-yl]-4H-pyrazino[2,3-b][1,4]oxazin-3-one; formic acid]	359
CCNC(=O)COc1cc(F)c2c(c1)CC(CNCCC1CN(c3cnc4c(n3)NC(=O)CO4)C(=O)O1)C2 (centres unmarked) [Example 308, N-ethyl-2-[[7-fluoro-2-[[2-[2-oxo-3-(3-oxo-4H-pyrazino[2,3-b][1,4]oxazin-6-yl)-1,3-oxazolidin-5-yl]ethylamino]methyl]-2,3-dihydro-1H-inden-5-yl]oxy]acetamide; formic acid]	471
CNC(=O)COc1cc(F)c2c(c1)CC(CN1CCC3(CC1)CN(c1cnc4c(n1)NC(=O)CO4)C(=O)O3)C2 (centres unmarked) [Example 309, 2-[[7-fluoro-2-[[2-oxo-3-(3-oxo-4H-pyrazino[2,3-b][1,4]oxazin-6-yl)-1-oxa-3,8-diazaspiro[4.5]decan-8-yl]methyl]-2,3-dihydro-1H-inden-5-yl]oxy]-N-methylacetamide]	< 97.7
CNC(=O)COc1cc(F)c2c(c1)CC(CNCCC1CN(c3cnc4c(n3)NC(=O)CO4)C(=O)O1)C2 (centres unmarked) [Example 310, 2-[[7-fluoro-2-[[2-[2-oxo-3-(3-oxo-4H-pyrazino[2,3-b][1,4]oxazin-6-yl)-1,3-oxazolidin-5-yl]ethylamino]methyl]-2,3-dihydro-1H-inden-5-yl]oxy]-N-methylacetamide; formic acid]	180
CONC(=O)COc1cc(F)c2c(c1)CC(CNCCC1CN(c3cnc4c(n3)NC(=O)CO4)C(=O)O1)C2 (centres unmarked) [Example 311, 2-[[7-Fluoro-2-[[2-[2-oxo-3-(3-oxo-4H-pyrazino[2,3-b][1,4]oxazin-6-yl)-1,3-oxazolidin-5-yl]ethylamino]methyl]-2,3-dihydro-1H-inden-5-yl]oxy]-N-methoxyacetamide; formic acid]	382
NC(=O)COc1cc(F)c2c(c1F)CC(CNCCC1CN(c3cnc4c(n3)NC(=O)CO4)C(=O)O1)C2 (centres unmarked) [Example 312, 2-[[4,7-difluoro-2-[[2-[2-oxo-3-(3-oxo-4H-pyrazino[2,3-b][1,4]oxazin-6-yl)-1,3-oxazolidin-5-yl]ethylamino]methyl]-2,3-dihydro-1H-inden-5-yl]oxy]acetamide]	< 97.7
O=C1COc2ncc(N3CC(CCNCC4Cc5cc(O)cc(F)c5C4)OC3=O)nc2N1 (centres unmarked) [Example 317, 6-[5-[2-[(4-Fluoro-6-hydroxy-2,3-dihydro-1H-inden-2-yl)methylamino]ethyl]-2-oxo-1,3-oxazolidin-3-yl]-4H-pyrazino[2,3-b][1,4]oxazin-3-one]	< 97.7
O=C1COc2ncc(N3CC(CCNCC4Cc5nccc(F)c5C4)OC3=O)nc2N1 (centres unmarked) [Example 318, 6-[5-[2-[(4-fluoro-6,7-dihydro-5H-cyclopenta[b]pyridin-6-yl)methylamino]ethyl]-2-oxo-1,3-oxazolidin-3-yl]-4H-pyrazino [2,3-b][1,4]oxazin-3-one]	< 97.7
O=C1COc2ncc(N3CC(CCNCC4Cc5ncc(F)c(Cl)c5C4)OC3=O)nc2N1 (centres unmarked) [Example 319, 6-[5-[2-[(4-chloro-3-fluoro-6,7-dihydro-5H-cyclopenta[b]pyridin-6-yl)methylamino]ethyl]-2-oxo-1,3-oxazolidin-3-yl]-4H-pyrazino[2,3-b][1,4]oxazin-3-one; formic acid]	< 97.7
O=C1COc2ncc(N3CC(CCNCC4Cc5cc(OCc6cc[nH]n6)cc(F)c5C4)OC3=O)nc2N1 (centres unmarked) [Example 320, 6-[5-[2-[[4-Fluoro-6-(1H-pyrazol-3-ylmethoxy)-2,3-dihydro-1H-inden-2-yl]methylamino]ethyl]-2-oxo-1,3-oxazolidin-3-yl]-4H-pyrazino[2,3-b][1,4]oxazin-3-one; formic acid]	202
O=C1COc2ncc(N3CC(CCNCC4Cc5cc(OC6COC6)cc(F)c5C4)OC3=O)nc2N1 (centres unmarked) [Example 323, 6-[5-[2-[[4-fluoro-6-(oxetan-3-yloxy)-2,3-dihydro-1H-inden-2-yl]methylamino]ethyl]-2-oxo-1,3-oxazolidin-3-yl]-4H-pyrazino [2,3-b] [1,4]oxazin-3-one]	250
CS(=O)(=O)NCCOc1cc(F)c2c(c1)CC(CNCCC1CN(c3cnc4c(n3)NC(=O)CO4)C(=O)O1)C2 (centres unmarked) [Example 324, N-[2-[[7-fluoro-2-[[2-[2-oxo-3-(3-oxo-4H-pyrazino[2,3-b][1,4]oxazin-6-yl)-1,3-oxazolidin-5-yl]ethylamino]methyl]-2,3-dihydro-1H-inden-5-yl]oxy]ethyl]methanesulfonamide]	205
CN(CCOc1cc(F)c2c(c1)CC(CNCCC1CN(c3cnc4c(n3)NC(=O)CO4)C(=O)O1)C2)S(C)(=O)=O (centres unmarked) [Example 325, N-[2-[[7-fluoro-2-[[2-[2-oxo-3-(3-oxo-4H-pyrazino[2,3-b][1,4]oxazin-6-yl)-1,3-oxazolidin-5-yl]ethylamino]methyl]-2,3-dihydro-1H-inden-5-yl]oxy]ethyl]-N-methylmethanesulfonamide]	281
Cc1ncc(F)c2c1CC(CCN1CC3(C1)CN(c1cnc4c(n1)NC(=O)CO4)C(=O)O3)C2 (centres unmarked) [Example 326, 6-[2-[2-(4-fluoro-1-methyl-6,7-dihydro-5H-cyclopenta[c]pyridin-6-yl)ethyl]-6-oxo-5-oxa-2,7-diazaspiro[3.4]octan-7-yl]-4H-pyrazino[2,3-b][1,4]oxazin-3-one]	138
CC(N)COc1cc(F)c2c(c1)CC(CCN1CC3(C1)CN(c1cnc4c(n1)NC(=O)CO4)C(=O)O3)C2 (centres unmarked) [Example 327, 6-[2-[2-[6-(2-aminopropoxy)-4-fluoro-2,3-dihydro-1H-inden-2-yl]ethyl]-6-oxo-5-oxa-2,7-diazaspiro[3.4]octan-7-yl]-4H-pyrazino[2,3-b][1,4]oxazin-3-one]	< 97.7
